Here are results for 16 compounds from PMC9166630, “SAR Probing of KX2-391 Provided Analogues With Juxtaposed Activity Profile Against Major Oncogenic Kinases” (Frontiers in Oncology, 2022).

Read-outs that look alike come from different tables or passages of the source.

Data set [1] deals with N87 (stomach) cancer cells. Description: SRB cytotoxicity assay, N87. It is filed as cell-based. Particulars: Homo sapiens, 72 h, maximum tested concentration 50 µM, read-out: IC50 ± SEM, N87. As for the experimental part:
(§1) MCF7 (breast) or N87 (stomach) cancer cells were grown in Roswell Park Memorial Institute-1640 (RPMI-1640) medium (Thermo Fisher Scientific, Inc; Waltham, MA, USA), supplemented with 10% heat inactivated fetal bovine serum (FBS), 50 units/mL of penicillin and […] of streptomycin and maintained at 37°C in a humidified atmosphere containing 5% CO2. The cells were maintained as “monolayer culture” by serial subculturing.
(§2) Cytotoxicity was determined using Sulforhodamine B (SRB) method as previously described by Skehan et al. ([66]). Exponentially growing MCF7 and N87 cells were collected using 0.25% Trypsin-EDTA and were then seeded in 96-well plates at a density of 1000-2000 cells/well in 10% FBS and penicillin/streptomycin supplemented RPMI-1640 medium. After 24 h, cells were treated with different concentrations of test compounds and incubated for 72 h at 37°C in a humidified atmosphere containing 5% CO2. Next, the cells were fixed by adding trichloroacetic acid (TCA, 10% final conc. in wells) directly to the wells and incubated for 1 h at 4°C, then cells were washed with distilled water 5 times to remove excess TCA, media, serum proteins, and metabolites, followed by air drying. After that, the fixed cells were stained with 0.4% SRB dissolved in 1% acetic acid for 10 min at room temperature, and excess stain was removed by quickly rinsing with 1% acetic acid. The residual acetic acid was removed completely by air drying the plates for 24 h, and the dye was solubilized with Tris buffer (pH= 7.4, 10 mM) for 5 min on a shaker at 1600 rpm. The optical density (OD) of each well was measured spectrophotometrically at 564 nm with an ELISA microplate reader (ChroMate-4300, FL, USA). The IC50 values (concentration of drug resulting in 50% reduction in cell survival) were calculated according to the equation for Boltzman sigmoidal concentration–response curve using the nonlinear regression fitting models (Graph Pad, Prism Version 5).
(In general: The SRB assay estimates cell density from bound dye.)

The test system of data set [2] is HCT116 cell line. Description: MTT anti-proliferative assay, HCT116. In kind it is cell-based, human. The note with it: maximum tested concentration 50 µM, read-out: IC50 ± SEM, HCT116. The procedure:
The test compounds were evaluated for anti-proliferative activity using the MTT viability assay against HCT116 cell line. Cells were seeded in triplicate in 96-well plates at a density of 10x 10^3 cells/mL in a total volume of 200 µL per well. 0.1% of DMSO was used as a vehicle control. Each well was treated with 2 µL test compounds, which had been pre-prepared as stock solutions in […] to furnish the concentration range of study, 0.1 µM to 50 µM, and re-incubated for a further 72 h at 37°C in a humidified atmosphere containing 5% CO2. The culture medium was then removed, and the cells were washed with 100 µL PBS and 100 µL MTT was added, to reach a final concentration of 1 mg/mL MTT. Cells were incubated for 3 h in darkness at 37°C. After that, MTT solution was removed and MTT was solubilized by adding […] DMSO. The cells were maintained at room temperature in darkness for 20 min to ensure thorough color diffusion before reading the absorbance using a microplate reader at 570 nm. All experiments were conducted in triplicates. Results were expressed as percentage viability relative to vehicle control (100%). Dose response curves were plotted and IC50 values (concentration of drug resulting in 50% reduction in cell survival) were obtained using the commercial software package Prism (GraphPad Software, Inc., La Jolla, CA, USA).

Data set [3] concerns MCF7 (breast) cancer cells. Kind of data set: SRB cytotoxicity assay, MCF7. In kind it is cell-based, human. The note with it: maximum tested concentration 50 µM, read-out: IC50 ± SEM, MCF7. As for the experimental part:
as §1, §2

Data set [4] relates to HL60 leukemia cell line. Kind of data set: CellTiter-Blue cell viability assay, HL60. Particulars: Homo sapiens, HL-60. It is filed as cell-based. As for the experimental part:
(§3) HL60, K562, MV4-11 and NB4 were purchased from CLS Cell Line Service GmbH (Eppelheim, Germany). All cell lines were cultured in RPMI-1640 medium supplemented with 10% fetal bovine serum (FBS) (Thermo Fisher Scientific) and 0.1% ciprofloxacin (2.5mg/ml; Cipla Limited; Mumbai, India), and were maintained at 37°C in the presence of 21% O2 and 5% CO2.
(§4) Cell viability was determined using the CellTiter®-Blue Cell Viability Assay kit (Promega, Madison, WI, USA). Approximately 10^4 cells were counted and plated in a 96-well plate in the presence of test compounds ranging from 0.01 to 10 or 20 µM in triplicate and were incubated for 48 h at 37°C in a humidified incubator. After the incubation period was complete, 20 µL of CellTiter®-Blue Cell Viability Assay reagent was added to each well and incubated for additional 2 h for the development of florescence. Florescence was measured at Ex/Em 540/590 on SpectraMax® i3 Multi-Mode microplate reader (Molecular Devices, LLC; San Jose, CA, USA) and plotted against drug concentration to determine the IC50 of the test compounds. The IC50 was obtained by non-linear regression model using GraphPad Prism 6.07 (GraphPad Software, Inc, USA).

Data set [5] concerns MV4-11 leukemia cell line. Kind of data set: CellTiter-Blue cell viability assay, MV4-11. It is filed as cell-based. The note with it: Homo sapiens. The procedure:
as §3, §4

The test system of data set [6] is K562 leukemia cell line. Kind of data set: CellTiter-Blue cell viability assay, K562. The note with it: Homo sapiens. In kind it is cell-based. As for the experimental part: as §3, §4
Data set [7] concerns NB4 leukemia cell line. Description: CellTiter-Blue cell viability assay, NB4. Particulars: Homo sapiens. In kind it is cell-based, human. As for the experimental part: as §3, §4
In general terms: Resazurin is reduced to fluorescent resorufin, in cell work by metabolically active cells.

Where [8] appears, read: CellTiter-Blue, 48 h, maximum tested concentration 20 µM, read-out: IC50 ± SEM, HL60.
Where [9] appears, read: CellTiter-Blue, 48 h, maximum tested concentration 20 µM, read-out: IC50 ± SEM, MV4-11.
[10] abbreviates: CellTiter-Blue, 48 h, maximum tested concentration 20 µM, read-out: IC50 ± SEM, K562.
[11] abbreviates: 48 h, CellTiter-Blue, 48 h, maximum tested concentration 20 µM, read-out: IC50 ± SEM, NB4.

With `Nc1ccc(CC(=O)NCc2ccccc2)cc1` [Compound 3a, 2-(4-aminophenyl)-N-benzylacetamide], the melting point – broadly, the temperature of the solid-liquid transition – was 140 to 141 °C. Also, the IC50 – broadly, the concentration needed to halve the response being measured – in data set [1] is over 50 µM. In addition, the IC50 in data set [2] (72 h) is over 50 µM. Besides, the IC50 in data set [2] (Homo sapiens, HCT-116, 72 h) is over 100 µM. Moreover, the IC50 in data set [3] (72 h) was over 50 µM. Moreover, the IC50 in data set [3] (Homo sapiens, MCF7, 72 h) is over 100 µM.

Consider `CC(=O)Nc1ccc(CC(=O)NCc2ccccc2)cc1` [Compound 4a, 2-(4-acetamidophenyl)-N-benzylacetamide], for which the IC50 was over 50 µM in data set [1]; 18.8 ± 3.06 µM in data set [2] (72 h); 18.8 µM in data set [2] (Homo sapiens, HCT-116, 72 h); 29.3 ± 4.64 µM in data set [3] (72 h); 29.3 µM in data set [3] (Homo sapiens, MCF7, 72 h).

Compound `O=C(Cc1ccc(NC(=O)c2ccc(Cl)cc2)cc1)NCc1ccccc1` [Compound 4f, N-(4-(2-(benzylamino)-2-oxoethyl)phenyl)-4-chlorobenzamide] returned a melting point of 190 °C. The IC50 in data set [1] amounted to 48.3 ± 7.44 µM. In addition, the IC50 in data set [3] (Homo sapiens, MCF7, 72 h) was over 50 µM.

`Cc1ccc(S(=O)(=O)Nc2ccc(CC(=O)NCc3ccccc3)cc2)cc1` [Compound 4g, N-benzyl-2-(4-((4-methylphenyl)sulfonamido)phenyl)acetamide] gave a melting point of 140 °C. Besides, the concentration for half-maximal inhibition (IC50) in data set [2] (Homo sapiens, HCT-116, 72 h) is over 50 µM. Also, the IC50 in data set [4] (setting [8]) is over 20 µM. Moreover, the IC50 in data set [5] (setting [9]) was over 20 µM. Also, the IC50 in data set [6] (setting [10]) was over 20 µM. Besides, the IC50 in data set [3] (Homo sapiens, MCF7, 72 h) was over 50 µM.

In the case of `COc1cccc(C(=O)Nc2ccc(CC(=O)NCc3ccccc3)cc2)c1` [Compound 4h, N-(4-(2-(benzylamino)-2-oxoethyl)phenyl)-3-methoxybenzamide], the IC50 in data set [7] (setting [11]) was 1.96 ± 1.33 µM; in data set [4] (setting [8]), 3.27 ± 0.15 µM; in data set [5] (setting [9]), 2.4 ± 0.49 µM; in data set [6] (setting [10]), 4.23 ± 2.44 µM.

As to `O=C(Cc1ccc(NC(=O)c2cccc(OCCN3CCOCC3)c2)cc1)NCc1ccccc1` [Compound 4i, N-(4-(2-(benzylamino)-2-oxoethyl)phenyl)-3-(2-morpholinoethoxy)benzamide], the IC50 in data set [7] (setting [11]) is over 20 µM; in data set [4] (setting [8]), over 20 µM; in data set [5] (setting [9]), 16.3 ± 4.43 µM; in data set [6] (setting [10]), 17.4 ± 2.63 µM.

The compound `COc1ccc(C(=O)Nc2ccc(CC(=O)NCc3ccccc3)cc2)cc1Cl` [Compound 4j, N-(4-(2-(benzylamino)-2-oxoethyl)phenyl)-3-chloro-4-methoxybenzamide] showed a melting point of 186 °C. For the same compound, the IC50 in data set [7] (setting [11]) is 5.33 ± 1.43 µM. The IC50 in data set [4] (setting [8]) is over 20 µM. Also, the IC50 in data set [5] (setting [9]) was found to be 20 ± 0.16 µM. The IC50 in data set [6] (setting [10]) turned out to be 13.04 ± 0.04 µM.

The compound `COc1ccc(C(=O)Nc2ccc(CC(=O)NCc3ccccc3)cc2)cc1OC` [Compound 4k, N-(4-(2-(benzylamino)-2-oxoethyl)phenyl)-3,4-dimethoxybenzamide] gave a melting point of 215 °C. Besides, the IC50 in data set [7] (setting [11]) was found to be 9.88 ± 2.8 µM. For the same compound, the IC50 in data set [4] (setting [8]) is over 20 µM. In data set [5] (setting [9]), the IC50 came to 7.95 ± 0.31 µM. In data set [6] (setting [10]), the IC50 was over 20 µM.

In turn, `O=C(Cc1ccc(NC(=O)c2ccc(OCCN3CCOCC3)c(Cl)c2)cc1)NCc1ccccc1` [Compound 4l, N-(4-(2-(benzylamino)-2-oxoethyl)phenyl)-3-chloro-4-(2-morpholinoethoxy) benzamide] had a melting point of 147 °C. Besides, the IC50 in data set [7] (setting [11]) amounted to 8.77 ± 1.75 µM. The IC50 in data set [4] (setting [8]) is over 20 µM. For the same compound, the IC50 in data set [5] (setting [9]) came to 18.85 ± 0.12 µM. Further, the IC50 in data set [6] (setting [10]) came out at 12.96 ± 0.08 µM.

On to `O=C(Cc1ccc(NC(=O)c2ccnc(Cl)c2)cc1)NCc1ccccc1` [Compound 4m, N-(4-(2-(benzylamino)-2-oxoethyl)phenyl)-2-chloroisonicotinamide], for which the IC50 in data set [7] (setting [11]) is 3.46 ± 0.06 µM; in data set [4] (setting [8]), over 20 µM; in data set [5] (setting [9]) it was 6.33 ± 4.24 µM; in data set [6] (setting [10]) it was 12.4 ± 1.39 µM.

`O=C(Cc1ccc(NC(=O)c2cncc(Cl)c2)cc1)NCc1ccccc1` [Compound 4o, N-(4-(2-(benzylamino)-2-oxoethyl)phenyl)-5-chloronicotinamide] showed a melting point of 231 °C. In data set [7] (setting [11]), the IC50 came to 5.89 ± 1.11 µM. The IC50 in data set [4] (setting [8]) is over 20 µM. Further, the IC50 in data set [5] (setting [9]) is over 20 µM. Further, in data set [6] (setting [10]), the IC50 was over 20 µM.

The compound `O=C(Cc1ccc(NC(=O)c2ccc(Cl)o2)cc1)NCc1ccccc1` [Compound 4p, N-(4-(2-(benzylamino)-2-oxoethyl)phenyl)-5-chlorofuran-2-carboxamide] returned a melting point of 217 °C. Moreover, in data set [7] (setting [11]), the IC50 was over 20 µM. Moreover, the IC50 in data set [4] (setting [8]) was over 20 µM. The 50% inhibitory concentration (IC50) in data set [5] (setting [9]) is over 20 µM. Moreover, the IC50 in data set [6] (setting [10]) is over 20 µM.

Consider `O=C(Cc1ccc(NC(=O)c2cccc(Cl)c2)cc1)NCCc1ccccc1` [Compound 4q, 3-Chloro-N-(4-(2-oxo-2-(phenethylamino)ethyl)phenyl)benzamide], for which the melting point stood at 160 °C. Also, the IC50 in data set [4] (setting [8]) is over 20 µM. Moreover, in data set [5] (setting [9]), the IC50 is over 20 µM. In data set [6] (setting [10]), the half-inhibitory concentration (IC50) is over 20 µM.

`O=C(Cc1ccc(NC(=O)c2cccc(Cl)c2)cc1)NCc1ccco1` [Compound 4r, 3-Chloro-N-(4-(2-((furan-2-ylmethyl)amino)-2-oxoethyl)phenyl)benzamide]: the melting point came out at 206 °C. Moreover, in data set [4] (setting [8]), the IC50 was over 20 µM. For the same compound, in data set [5] (setting [9]), the IC50 was over 20 µM. Moreover, in data set [6] (setting [10]), the IC50 is over 20 µM.

Regarding `O=C(Cc1ccc(NC(=O)c2cccc(Cl)c2)cn1)NCc1ccccc1` [Compound 4s, N-(6-(2-(benzylamino)-2-oxoethyl)pyridin-3-yl)-3-chlorobenzamide], the IC50 was found to be 1.74 ± 0.16 µM in data set [7] (setting [11]), 6.24 ± 3.3 µM in data set [4] (setting [8]), 2.87 ± 0.3 µM in data set [5] (setting [9]) and 4 ± 1.5 µM in data set [6] (setting [10]).

Regarding `O=C(Cc1ccc(-c2ccc(OCCN3CCOCC3)cc2)cn1)NCc1ccccc1` [KX2-391, Tirbanibulin], the IC50 in data set [7] (positive reference for validation, read-out: IC50, NB4) was 0.0033 µM; in data set [4] (positive reference for validation, read-out: IC50, HL60), 0.0121 µM; in data set [5] (positive reference for validation, read-out: IC50, MV411), 0.00419 µM; in data set [6] (positive reference for validation, read-out: IC50, K562), 0.0145 µM.
